The source made the active and inactive calls.
Tests used:
[1] = biological target: T1, Short transient receptor potential channel 4 (Mus musculus, UniProt Q9QUQ5); test: calcium entry via TRPC4 opening agents – cell-based, HEK293 TRPC4/mu-opioid, Fluo-4 calcium, dose response (AID 434937); type: functional
T1 sequence (Q9QUQ5 whole entry): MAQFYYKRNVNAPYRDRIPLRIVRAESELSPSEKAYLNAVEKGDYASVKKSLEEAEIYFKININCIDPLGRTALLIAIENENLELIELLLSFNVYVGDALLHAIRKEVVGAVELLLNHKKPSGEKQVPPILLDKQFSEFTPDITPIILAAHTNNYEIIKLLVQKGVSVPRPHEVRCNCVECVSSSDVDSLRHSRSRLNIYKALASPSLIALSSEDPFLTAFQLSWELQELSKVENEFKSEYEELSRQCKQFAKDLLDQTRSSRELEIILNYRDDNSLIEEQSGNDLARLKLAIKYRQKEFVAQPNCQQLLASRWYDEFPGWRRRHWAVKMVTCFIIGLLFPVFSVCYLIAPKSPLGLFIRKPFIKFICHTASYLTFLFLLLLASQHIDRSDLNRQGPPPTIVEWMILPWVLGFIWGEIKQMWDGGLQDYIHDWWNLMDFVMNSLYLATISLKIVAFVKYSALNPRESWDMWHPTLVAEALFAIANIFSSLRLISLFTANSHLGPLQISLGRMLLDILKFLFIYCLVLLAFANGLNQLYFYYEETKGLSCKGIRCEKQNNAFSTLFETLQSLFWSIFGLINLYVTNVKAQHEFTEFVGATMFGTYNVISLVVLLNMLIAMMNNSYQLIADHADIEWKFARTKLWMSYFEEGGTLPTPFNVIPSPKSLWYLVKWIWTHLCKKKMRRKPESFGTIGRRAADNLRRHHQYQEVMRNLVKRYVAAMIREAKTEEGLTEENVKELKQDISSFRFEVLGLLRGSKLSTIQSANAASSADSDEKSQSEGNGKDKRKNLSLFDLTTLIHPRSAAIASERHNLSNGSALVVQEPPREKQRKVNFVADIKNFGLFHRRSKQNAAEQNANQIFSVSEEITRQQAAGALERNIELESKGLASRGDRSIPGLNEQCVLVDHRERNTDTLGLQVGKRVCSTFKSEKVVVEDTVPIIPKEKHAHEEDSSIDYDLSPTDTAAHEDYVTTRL

[2] = HepG2 cell cytotoxicity, dose response, cytotoxicity control for non-replicating M. tuberculosis project (AID 489018); type: functional; settings: Mycobacterium tuberculosis
[3] = biological target: T2, Heat shock factor protein 1 (Mus musculus, UniProt P38532); test: enhancement of HSF1-driven luciferase signal – cell-based, NIH3T3, luminescence, dose retest, confirmation (AID 435004); type: functional;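 also: stress induced by proteasome inhibitor MG132 added 30 min after compound; luciferase reporter driven by HSF1 response element in NIH3T3 cells; actives raise luminescence as potentiators of the MG132 stress response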
T2 sequence (P38532 whole entry): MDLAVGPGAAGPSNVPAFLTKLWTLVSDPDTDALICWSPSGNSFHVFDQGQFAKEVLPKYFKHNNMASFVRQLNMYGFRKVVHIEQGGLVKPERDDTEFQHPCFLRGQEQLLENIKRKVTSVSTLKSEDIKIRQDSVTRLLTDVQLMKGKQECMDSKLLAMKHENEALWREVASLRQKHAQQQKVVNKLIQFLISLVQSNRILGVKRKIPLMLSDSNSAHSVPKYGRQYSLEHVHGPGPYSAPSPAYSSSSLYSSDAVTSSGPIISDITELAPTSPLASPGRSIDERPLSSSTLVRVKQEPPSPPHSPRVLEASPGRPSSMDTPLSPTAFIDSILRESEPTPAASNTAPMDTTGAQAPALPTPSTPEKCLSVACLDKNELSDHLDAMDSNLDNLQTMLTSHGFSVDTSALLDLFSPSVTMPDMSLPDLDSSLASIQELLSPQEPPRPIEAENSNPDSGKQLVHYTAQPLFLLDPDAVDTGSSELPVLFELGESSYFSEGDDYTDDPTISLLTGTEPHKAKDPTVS

[4] = Vero E6 cell cytotoxicity, dose response, cytotoxicity control for non-replicating M. tuberculosis project, secondary assay (AID 492998); type: functional, VeroE6; settings: Vero C1008
[5] = biological target: T3, Microphthalmia-associated transcription factor (Homo sapiens, UniProt O75030); test: reducers of TRPM1 reporter luminescence, concentration series – cell-based, SK-MEL-5, cherry-picked, set 3, MITF inhibitor project, dose response (AID 493073); type: functional;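 also: SK-MEL-5 melanoma cells with luciferase driven by the MITF target TRPM1 promoter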
T3 sequence (O75030 whole entry): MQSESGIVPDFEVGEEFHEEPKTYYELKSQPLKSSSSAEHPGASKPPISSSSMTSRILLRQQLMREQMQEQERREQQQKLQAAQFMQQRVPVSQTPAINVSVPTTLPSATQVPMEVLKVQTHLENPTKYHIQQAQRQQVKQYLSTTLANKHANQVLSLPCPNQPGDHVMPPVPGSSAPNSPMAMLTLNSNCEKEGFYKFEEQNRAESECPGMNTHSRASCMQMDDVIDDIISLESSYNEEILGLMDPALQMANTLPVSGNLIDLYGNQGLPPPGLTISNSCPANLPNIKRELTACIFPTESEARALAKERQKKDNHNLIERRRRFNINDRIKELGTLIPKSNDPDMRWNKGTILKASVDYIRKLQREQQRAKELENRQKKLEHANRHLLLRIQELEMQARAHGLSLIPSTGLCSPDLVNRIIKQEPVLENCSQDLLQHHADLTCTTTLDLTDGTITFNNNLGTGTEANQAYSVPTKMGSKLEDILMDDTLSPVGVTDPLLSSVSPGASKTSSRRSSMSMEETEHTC

cells = type: functional
[6] = THP-1 cell cytotoxicity, dose response, cytotoxicity control for non-replicating M. tuberculosis project (AID 489025); type: functional
[7] = Trypanosoma cruzi growth suppression in host cells – NIH3T3 host cells, beta-gal luminescence, confirmation (AID 2044); type: functional, cell-based;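 also: intracellular parasites grown in NIH/3T3 mouse fibroblasts as host cells; luminescent beta-galactosidase reporter signal from transgenic T. cruzi replicating inside host cells; inhibitors lower the luminescence signal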
[8] = viability of PTEN-deleted HCT116 cells – cell-based, HCT116 PTEN knockout, dose response (AID 1047); type: functional;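 also: HCT116 colon tumor cells with PTEN knocked out; cells exposed to compound for 60 hours before readout; potency for loss of cell viability measured by luminescence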
[9] = NIH3T3 cell viability loss – ATP luminescence, mouse fibroblasts, counter-screen, dose response (AID 2010); type: functional, cell-based;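 also: cells exposed to compound for about 90 hours before reading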
[10] = viability of HCT116 lacking mutant beta-catenin – cell-based, human colon tumor, dose response (AID 1045); type: functional;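 also: HCT116 colon tumor cells with beta catenin knocked out; cells exposed to compound for 60 hours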
[11] = biological target: T4, Corticotropin-releasing factor receptor 2/Corticotropin-releasing factor-binding protein (Homo sapiens, UniProt P24387+Q13324); test: Dose Response confirmation of uHTS hits for small molecule antagonists of the CRF-binding protein and CRF-R2 receptor complex.; type: functional; settings: read-out: IC50_Mean
T4 sequence (Q13324 whole entry): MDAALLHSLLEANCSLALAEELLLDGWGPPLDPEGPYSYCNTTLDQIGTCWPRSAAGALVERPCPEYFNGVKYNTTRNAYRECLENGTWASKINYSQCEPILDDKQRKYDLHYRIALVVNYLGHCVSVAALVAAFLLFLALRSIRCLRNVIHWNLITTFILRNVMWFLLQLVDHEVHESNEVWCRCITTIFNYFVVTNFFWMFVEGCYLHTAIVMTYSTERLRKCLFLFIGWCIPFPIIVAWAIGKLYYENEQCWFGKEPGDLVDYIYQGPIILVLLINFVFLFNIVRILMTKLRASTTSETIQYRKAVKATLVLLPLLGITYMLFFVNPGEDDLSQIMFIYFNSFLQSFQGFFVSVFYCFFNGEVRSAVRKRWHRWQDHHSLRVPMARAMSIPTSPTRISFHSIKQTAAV
T4 sequence (P24387 whole entry): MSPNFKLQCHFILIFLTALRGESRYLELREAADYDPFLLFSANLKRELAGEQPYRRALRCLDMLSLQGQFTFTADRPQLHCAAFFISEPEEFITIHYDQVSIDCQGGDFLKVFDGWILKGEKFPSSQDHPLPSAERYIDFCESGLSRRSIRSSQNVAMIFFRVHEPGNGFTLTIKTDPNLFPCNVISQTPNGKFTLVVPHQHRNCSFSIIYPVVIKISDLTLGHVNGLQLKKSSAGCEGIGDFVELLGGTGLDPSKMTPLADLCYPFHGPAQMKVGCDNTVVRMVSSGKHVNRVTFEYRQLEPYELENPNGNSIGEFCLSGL

[12] = blockers of CRF-binding protein–CRF-R2 complex – cell-based, uHTS hits, 384-well, dose response (AID 651639); type: functional, Homo sapiens; settings: read-out: IC50_Mean
[13] = biological target: T4, Corticotropin-releasing factor receptor 2/Corticotropin-releasing factor-binding protein; test: activators of CRF receptor 2 with binding protein – uHTS hits, confirmation (AID 602473); type: functional; settings: read-out: EC50_Mean
[14] = biological target: T5, High affinity choline transporter 1 (Homo sapiens, UniProt Q9GZV3); test: human choline transporter blockers, potency – cell-based, 5-point CRC, membrane potential dye, dose response (AID 504840); type: functional
T5 sequence (Q9GZV3 whole entry): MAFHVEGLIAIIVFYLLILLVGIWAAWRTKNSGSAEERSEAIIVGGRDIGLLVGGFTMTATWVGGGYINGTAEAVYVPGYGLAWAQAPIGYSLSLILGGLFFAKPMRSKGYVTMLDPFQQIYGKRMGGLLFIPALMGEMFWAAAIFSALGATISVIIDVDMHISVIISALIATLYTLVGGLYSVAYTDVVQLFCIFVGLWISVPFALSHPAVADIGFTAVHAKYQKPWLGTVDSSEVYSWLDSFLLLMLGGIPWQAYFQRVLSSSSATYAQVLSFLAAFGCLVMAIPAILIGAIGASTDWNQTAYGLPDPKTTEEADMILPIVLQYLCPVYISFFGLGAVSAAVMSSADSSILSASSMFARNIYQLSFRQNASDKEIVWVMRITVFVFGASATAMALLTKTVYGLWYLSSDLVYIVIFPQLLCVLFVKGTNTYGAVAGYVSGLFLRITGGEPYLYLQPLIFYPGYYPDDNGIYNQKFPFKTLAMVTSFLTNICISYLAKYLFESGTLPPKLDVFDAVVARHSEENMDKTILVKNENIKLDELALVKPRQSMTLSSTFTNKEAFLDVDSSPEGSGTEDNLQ

[15] = biological target: Ras and Rab interactor 1/Tyrosine-protein kinase ABL1 (Homo sapiens, UniProt P00519+Q13671); type: functional;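 also: biochemical TR-FRET dose-response test measuring inhibition of binding between Rin1 and Abl proteins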
Ras and Rab interactor 1/Tyrosine-protein kinase ABL1, sequence (P00519 whole entry): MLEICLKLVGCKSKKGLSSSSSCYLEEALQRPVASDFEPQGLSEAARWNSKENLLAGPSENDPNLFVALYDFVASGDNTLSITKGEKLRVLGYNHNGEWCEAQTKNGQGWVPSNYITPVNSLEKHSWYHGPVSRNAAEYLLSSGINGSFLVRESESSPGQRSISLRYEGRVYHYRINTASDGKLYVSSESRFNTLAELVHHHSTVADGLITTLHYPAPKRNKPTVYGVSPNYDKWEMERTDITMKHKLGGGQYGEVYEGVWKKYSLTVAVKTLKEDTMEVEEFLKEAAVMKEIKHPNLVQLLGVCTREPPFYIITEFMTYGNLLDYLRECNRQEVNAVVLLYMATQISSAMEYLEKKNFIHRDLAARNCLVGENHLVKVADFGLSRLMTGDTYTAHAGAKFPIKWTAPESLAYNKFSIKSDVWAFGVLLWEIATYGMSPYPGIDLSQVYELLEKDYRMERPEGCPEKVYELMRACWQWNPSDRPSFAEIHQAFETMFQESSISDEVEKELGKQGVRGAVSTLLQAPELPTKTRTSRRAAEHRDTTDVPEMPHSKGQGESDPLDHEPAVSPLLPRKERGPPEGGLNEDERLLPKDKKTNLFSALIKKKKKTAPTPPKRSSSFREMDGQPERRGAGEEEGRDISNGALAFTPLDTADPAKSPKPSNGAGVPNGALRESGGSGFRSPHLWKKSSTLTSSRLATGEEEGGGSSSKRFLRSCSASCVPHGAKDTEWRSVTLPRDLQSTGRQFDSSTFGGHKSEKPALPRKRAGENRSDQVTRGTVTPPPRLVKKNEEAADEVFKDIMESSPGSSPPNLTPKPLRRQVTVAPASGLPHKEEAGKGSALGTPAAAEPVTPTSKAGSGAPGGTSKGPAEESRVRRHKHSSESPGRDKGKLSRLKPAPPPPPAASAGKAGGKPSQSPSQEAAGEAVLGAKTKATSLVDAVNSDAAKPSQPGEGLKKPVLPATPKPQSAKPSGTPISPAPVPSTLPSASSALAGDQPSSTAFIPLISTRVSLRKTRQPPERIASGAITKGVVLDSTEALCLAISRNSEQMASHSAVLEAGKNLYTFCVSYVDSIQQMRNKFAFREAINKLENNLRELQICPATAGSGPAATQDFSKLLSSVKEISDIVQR
Ras and Rab interactor 1/Tyrosine-protein kinase ABL1, sequence (Q13671 whole entry): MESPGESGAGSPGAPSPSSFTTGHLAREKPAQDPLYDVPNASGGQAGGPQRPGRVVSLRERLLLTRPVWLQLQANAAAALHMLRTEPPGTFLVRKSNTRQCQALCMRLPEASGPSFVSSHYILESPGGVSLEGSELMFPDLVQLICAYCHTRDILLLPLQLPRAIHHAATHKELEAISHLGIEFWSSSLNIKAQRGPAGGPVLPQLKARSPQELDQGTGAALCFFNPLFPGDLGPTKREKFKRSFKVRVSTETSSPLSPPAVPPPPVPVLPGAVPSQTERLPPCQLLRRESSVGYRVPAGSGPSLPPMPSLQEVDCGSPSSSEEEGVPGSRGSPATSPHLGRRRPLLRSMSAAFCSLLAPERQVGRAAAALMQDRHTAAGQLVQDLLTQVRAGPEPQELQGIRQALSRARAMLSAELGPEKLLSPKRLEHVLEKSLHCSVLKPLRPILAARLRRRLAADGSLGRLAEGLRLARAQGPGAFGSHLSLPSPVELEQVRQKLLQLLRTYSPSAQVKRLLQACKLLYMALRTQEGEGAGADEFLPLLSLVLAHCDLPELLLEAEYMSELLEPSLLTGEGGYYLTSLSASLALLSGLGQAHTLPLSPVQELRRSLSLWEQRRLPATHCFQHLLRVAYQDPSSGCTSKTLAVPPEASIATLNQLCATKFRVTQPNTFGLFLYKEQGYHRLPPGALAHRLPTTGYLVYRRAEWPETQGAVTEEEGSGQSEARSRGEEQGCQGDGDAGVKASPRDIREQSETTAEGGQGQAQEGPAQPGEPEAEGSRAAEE

Streptokinase A = biological target: T6, Streptokinase A (Streptococcus pyogenes serotype M1, UniProt P10520); test: viability-normalized secreted streptokinase activity reduction – plasminogen activation absorbance, OD405, dose response (AID 1914); type: functional, Streptococcus pyogenes M1 GAS;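 also: secreted streptokinase activity via plasminogen activation per viability signal from cell pellet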
T6 sequence (P10520 whole entry): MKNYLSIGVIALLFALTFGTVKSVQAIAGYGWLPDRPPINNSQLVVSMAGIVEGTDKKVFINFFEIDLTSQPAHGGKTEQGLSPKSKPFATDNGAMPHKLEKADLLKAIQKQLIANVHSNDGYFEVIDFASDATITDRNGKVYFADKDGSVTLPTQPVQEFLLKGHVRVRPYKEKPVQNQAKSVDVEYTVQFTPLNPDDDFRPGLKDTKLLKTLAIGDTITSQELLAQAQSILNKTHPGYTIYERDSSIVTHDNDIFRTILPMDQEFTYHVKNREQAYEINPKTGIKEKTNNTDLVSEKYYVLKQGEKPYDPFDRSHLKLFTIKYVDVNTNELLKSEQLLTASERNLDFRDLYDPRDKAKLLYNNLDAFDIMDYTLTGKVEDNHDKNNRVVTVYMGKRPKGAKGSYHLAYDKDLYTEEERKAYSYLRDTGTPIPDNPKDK

[16] = tested on: Streptococcus sp. 'group A'; test: Streptococcus pyogenes SK(-)GAS viability under kanamycin – luminescence, BacTiterGlo, confirmation, counter-screen for streptokinase expression inhibitor project, dose response (AID 1900); type: functional, organism-based
Streptococcus = test: GAS UMAA2166 growth inhibition – luminescence, BacTiterGlo, counter-screen for streptokinase expression inhibitor project, dose response (AID 1915); type: functional, organism-based;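 also: potency for reduction of bacterial viability or growth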
[17] = biological target: FAD-linked sulfhydryl oxidase ALR (Homo sapiens, UniProt P55789); test: ALR-catalysed DTT oxidation blockers – biochemical, H2O2 detection, luminescence, cherry-pick, dose response (AID 493248)
FAD-linked sulfhydryl oxidase ALR, sequence (P55789 whole entry): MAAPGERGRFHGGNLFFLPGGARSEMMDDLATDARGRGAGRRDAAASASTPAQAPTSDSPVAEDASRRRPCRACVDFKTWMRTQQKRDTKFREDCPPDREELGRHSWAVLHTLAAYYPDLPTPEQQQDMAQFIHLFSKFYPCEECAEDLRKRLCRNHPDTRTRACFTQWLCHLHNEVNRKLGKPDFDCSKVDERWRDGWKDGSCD

[18] = biological target: T7, Sentrin-specific protease 8 (Homo sapiens, UniProt Q96LD8); type: functional
T7 sequence (Q96LD8 whole entry): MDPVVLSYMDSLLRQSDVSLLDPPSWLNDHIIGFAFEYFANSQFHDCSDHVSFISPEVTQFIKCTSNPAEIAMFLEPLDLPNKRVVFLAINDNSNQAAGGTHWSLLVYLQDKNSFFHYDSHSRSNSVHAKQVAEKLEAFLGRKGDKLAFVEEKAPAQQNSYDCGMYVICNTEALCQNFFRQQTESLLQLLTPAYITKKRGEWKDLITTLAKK

[19] = biological target: T7, Sentrin-specific protease 8; type: functional; remark: listed apart in the source
Genome polyprotein = Genome polyprotein (dengue virus type 2, UniProt P29990); test: flavivirus cap methylation enzyme inhibition – biochemical, confirmation dose response, primary screen (AID 588689); type: functional
Genome polyprotein, sequence (P29990 2492-3391 limits assumed): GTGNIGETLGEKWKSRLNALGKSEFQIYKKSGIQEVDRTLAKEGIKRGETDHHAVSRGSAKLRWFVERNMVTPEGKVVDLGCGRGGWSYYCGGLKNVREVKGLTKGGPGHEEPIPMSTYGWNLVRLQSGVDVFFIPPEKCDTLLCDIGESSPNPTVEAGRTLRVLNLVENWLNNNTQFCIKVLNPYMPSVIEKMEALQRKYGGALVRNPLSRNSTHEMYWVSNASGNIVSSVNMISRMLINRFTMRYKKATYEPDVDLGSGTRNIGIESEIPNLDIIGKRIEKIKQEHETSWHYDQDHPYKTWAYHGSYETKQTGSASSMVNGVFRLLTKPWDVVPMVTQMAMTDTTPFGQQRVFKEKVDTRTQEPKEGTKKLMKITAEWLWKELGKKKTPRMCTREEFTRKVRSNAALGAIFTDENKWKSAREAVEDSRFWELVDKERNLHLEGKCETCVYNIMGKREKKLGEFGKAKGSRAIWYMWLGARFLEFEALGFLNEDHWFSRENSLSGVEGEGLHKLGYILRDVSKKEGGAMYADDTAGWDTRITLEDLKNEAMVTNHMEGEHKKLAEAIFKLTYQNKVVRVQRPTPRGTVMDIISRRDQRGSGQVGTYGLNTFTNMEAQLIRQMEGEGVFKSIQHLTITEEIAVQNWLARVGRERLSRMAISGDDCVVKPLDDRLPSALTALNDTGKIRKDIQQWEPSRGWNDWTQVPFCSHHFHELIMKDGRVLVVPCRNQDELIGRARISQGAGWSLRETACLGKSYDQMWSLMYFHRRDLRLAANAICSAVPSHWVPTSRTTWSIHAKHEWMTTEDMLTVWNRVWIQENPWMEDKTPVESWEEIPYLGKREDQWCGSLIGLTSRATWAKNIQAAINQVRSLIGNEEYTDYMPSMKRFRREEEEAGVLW

CC1CC(C)CN(CCCNC(=O)c2nn(C)c3c2CS(=O)(=O)c2ccccc2-3)C1 (configuration not stated)
EC50 [1]: 237 nM (active)

O=[N+]([O-])c1ccc(-n2nnnc2-c2ccccc2)c([N+](=O)[O-])c1
CC50 [2]: 19.2 µM (active) | EC50 [3]: 9.09 µM (active) | CC50 [4]: 8.41 µM (active) | AC50 [5]: 7.37 µM (active) | IC50 (cells): 5.22 µM (active) | CC50 [6]: 19.6 µM (active) | EC50 [7]: 1.75 µM (active) | EC50 [8]: 4.92 µM (active) | EC50 [9]: > 60 µM (not active) | EC50 [10]: 5.3 µM (active)

COc1ccc(Oc2ccc(C(F)(F)F)cc2NC(=O)c2ccc(OC)cc2)cc1
IC50 [11]: < 0.368 µM (active) | IC50 [12]: 7.95 µM (active) | EC50 [13]: > 53 µM (inactive)

Cc1ccc(NC(=O)c2ccc(CN3CC(=O)N4CCCCC4C3=O)cc2)c(C)c1 (configuration not stated)
IC50 [14]: 4.47 µM (active)

COc1ccc(-n2c3c(cc(C(=O)NNc4ccccc4)c2=O)C(=O)CC(C)(C)C3)cc1
EC50 [1]: 1060 nM (active)

CC(C)c1ccc(NC(=O)CSc2nnc(CN3CCOCC3)n2C)cc1
IC50 [15]: 14.2 µM (inactive)

Oc1cc2ccccc2cc1-c1nnc(S)o1
IC50 [11]: 10.5 µM (active) | EC50 (Streptokinase A): 23.5 µM (active) | EC50 [16]: 10.3 µM (active) | IC50 [12]: 13.4 µM (active) | EC50 (Streptococcus): > 150 µM (not active) | EC50 [13]: > 53 µM (inactive) | AC50 [17]: 301 nM (active)

CC(C)N1C(=O)CCC1C(=O)N1CCCc2ccccc21 (configuration not stated)
IC50 [18]: > 100 µM (inactive) | IC50 [19]: 9.12 µM (active)

COc1cccc(/C=C2\SC(=S)N(NC(=O)c3ccncc3)C2=O)c1
IC50 [14]: 12.6 µM (active)

C=CCNc1ncnc2c1ncn2[C@H]1CN(Cc2ccc(-c3ccccc3)cc2)C[C@@H](CO)O1
IC50 [15]: 24.2 µM (inactive)

O=c1c(Sc2ccccc2)c(C(F)(F)F)[nH]n1-c1ccccc1
IC50 [11]: 22.3 µM (active) | IC50 [12]: > 20 µM (inactive) | EC50 [13]: > 53 µM (inactive) | IC50 (Genome polyprotein): 59.5 µM (active)
